# Where a name gives a salt, the structure may show the parent alone.
# How the values were obtained:
# Experiment in all cases: Inhibition of growth activity of tumor cell lines in vitro by MTT method
# 2780-CP = assay type: cell-based; settings: equivalent to 2 mg/ml doxorubicin, drug treatment 24 hours
# Experimental: (§1) The passive solid tumor-targeted anticancer prodrug used in the test was prepared in the test example 1 (equivalent to 2 mg/ml doxorubicin).
# (§2) Cell solution (with concentration of 50,000 cells/ml) growing in logarithmic growth phase cultured with RPMI 1640 culture medium was inoculated on a 96 well plate with 0.1 ml/well, and subject to corresponding drug treatment after incubation for 24 hours. After drug treatment for 24 hours, 0.02 ml 5 mg/ml 3-(4,5-dimethylthiazolyl-2)-2,5-diphenyltetrazolium bromide (MTT) was added for treatment for 4 hours, then culture solution was removed, 0.15 ml dimethylsulfoxide (DMSO) was added, and light absorption value was determined at 570 nm by a microplate reader.
# 2780-S = assay type: cell-based; settings: equivalent to 2 mg/ml doxorubicin, drug treatment 24 hours
# Experimental: as §1, §2
# A549 = assay type: cell-based; settings: Homo sapiens; A549, doxorubicin concentration 2 mg/ml, drug treatment 24 hours; read-out: Inhibition rate (%)
# Experimental: as §1, §2
# NCI-H446 = assay type: cell-based; settings: Homo sapiens; NCI-H446, doxorubicin concentration 2 mg/ml, drug treatment 24 hours; read-out: Inhibition rate (%)
# Experimental: as §1, §2
# B16 = assay type: cell-based, mouse; settings: B16, equivalent to 2 mg/ml doxorubicin, drug treatment 24 hours
# Experimental: as §1, §2
smiles,measurement,setting,value
COc1cccc2c1C(=O)c1c(O)c3c(c(O)c1C2=O)C[C@@](O)(C(=O)CO)C[C@@H]3O[C@H]1C[C@H](N)[C@H](O)[C@H](C)O1 [doxorubicin hydrochloride],Inhibition rate (%),2780-CP,49.3%
same,Inhibition rate (%),2780-S,52.8%
same,inhibition at 2000 µg/mL,A549,67.6%
same,inhibition at 2000 µg/mL,NCI-H446,63.3%
same,Inhibition rate (%),B16,85.9%

# Source: patent US20120244193A1, “PASSIVE SOLID TUMOR TARGETING ANTICANCER PRODRUG AND PREPARATION METHOD THEREOF” (priority 2009, published 2012)
